# Results from the supplement of paper PMC10307832.
# Legend:
# Experiment in all cases: relative viability (nuclei count vs DMSO), 5 days (fraction); higher = more cells survive
# RO-3306 + Phenformin = compound: C1=CC2=C(C=CC(=C2)C=C3C(=O)NC(=NCC4=CC=CS4)S3)N=C1 [RO-3306] + N=C(N)NC(=N)NCCc1ccccc1 [Phenformin] (partner 250 µM)
# Summary of the method: (§1)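 Relative viability was taken as the ratio of nuclei in treated wells to nuclei in vehicle wells. Lung cancer cell lines in 1536-well plates received compounds by pin tool one day after seeding, either one drug alone or a fixed anchor-drug dose plus five library-drug doses (not always all listed) in √10 steps. Nuclei were counted on 4× images after 5 days of treatment, and values are medians of duplicate plates.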
# RO-3306 + Trametinib = compound: C1=CC2=C(C=CC(=C2)C=C3C(=O)NC(=NCC4=CC=CS4)S3)N=C1 [RO-3306] + CC(=O)Nc1cccc(-n2c(=O)n(C3CC3)c(=O)c3c(Nc4ccc(I)cc4F)n(C)c(=O)c(C)c32)c1 [Trametinib] (partner 0.02 µM)
# Summary of the method: as §1
# [1] = compound: O=S(=O)(c1ccccc1)N(CC(F)(F)F)c1ccc(C(O)(C(F)(F)F)C(F)(F)F)cc1 + Cc1nc(NC(=O)N2CCC[C@H]2C(N)=O)sc1-c1ccnc(C(C)(C)C(F)(F)F)c1 [Alpelisib] (partner 2 µM)
# Summary of the method: as §1
Cell Line,relative viability (RO-3306 + Phenformin; first compound 0.01 µM),relative viability (RO-3306 + Phenformin; first compound 0.03162 µM),relative viability (RO-3306 + Phenformin; first compound 0.1 µM),relative viability (RO-3306 + Phenformin; first compound 0.3162 µM),relative viability (RO-3306 + Phenformin; first compound 1 µM),relative viability (RO-3306 + Trametinib; first compound 0.01 µM),relative viability (RO-3306 + Trametinib; first compound 0.03162 µM),relative viability (RO-3306 + Trametinib; first compound 0.1 µM),relative viability (RO-3306 + Trametinib; first compound 0.3162 µM),relative viability (RO-3306 + Trametinib; first compound 1 µM),relative viability ([1]; first compound 0.8 µM),relative viability ([1]; first compound 2.53 µM),relative viability ([1]; first compound 8 µM)
PC-3 [JPC-3],0.481,0.517,0.467,0.473,0.433,0.715,0.697,0.704,0.694,0.65,1.18,0.995,1.02
NCI-H1734,0.355,0.276,0.344,0.409,0.368,0.757,0.607,0.61,0.685,0.628,0.845,0.626,0.708
NCI-H520,0.562,0.422,0.425,0.491,0.588,0.896,0.629,0.569,0.714,0.756,1,0.915,1.28
HOP-62,0.694,0.405,0.777,0.714,0.659,0.433,0.383,0.384,0.398,0.36,0.551,0.954,0.706
NCI-H650,0.408,0.411,0.445,0.467,0.457,0.981,0.939,0.921,1.1,0.941,1.13,1.03,1
NCI-H1993,0.483,0.552,0.503,0.517,0.499,0.506,0.546,0.6,0.533,0.439,0.707,0.674,0.77
NCI-H2023,0.459,0.38,0.398,0.403,0.356,0.554,0.442,0.444,0.509,0.529,0.574,0.606,0.506
NCI-H647,0.682,0.304,0.449,0.582,0.392,0.538,0.38,0.457,0.486,0.533,1.25,1.01,1.35
EPLC-272H,0.312,0.399,0.308,0.25,0.317,0.272,,0.293,0.284,0.271,0.818,1.04,0.681
NCI-H1395,0.377,0.479,0.421,0.46,0.459,1.24,0.983,0.886,1.1,0.916,0.936,1.02,1.29
NCI-H3122,0.419,0.612,0.397,0.391,0.665,0.241,0.223,0.26,0.237,0.227,0.744,0.627,0.672
SK-MES-1,0.73,0.605,0.711,0.621,0.625,0.519,0.537,0.483,0.491,0.562,0.827,0.789,0.848
NCI-H661,0.302,0.281,0.268,0.247,0.282,0.691,0.503,0.584,0.586,0.567,0.752,0.681,1.02
NCI-H322M,0.768,0.661,0.724,0.777,0.791,0.561,0.445,0.515,0.54,0.531,0.794,0.792,0.73
NCI-H727,0.535,,0.502,0.458,0.576,0.39,0.388,0.355,0.352,0.409,0.549,0.465,0.489
LU99A,0.973,0.698,0.769,0.869,0.79,0.638,0.522,0.556,0.554,0.575,0.606,0.498,0.472
SK-LU-1,0.461,0.426,0.503,0.484,0.453,0.463,0.412,0.501,0.506,0.309,1.16,1.23,0.903
201T,0.499,0.355,0.46,0.414,0.369,0.691,0.727,0.706,0.725,0.671,1,0.915,0.987
COR-L23,0.475,0.391,0.455,0.409,0.435,0.656,0.374,0.558,0.532,0.656,0.846,0.8,0.867
LCLC-97TM1,0.395,0.442,0.45,0.455,0.472,0.214,0.186,0.191,0.204,0.165,0.241,0.252,0.263
PC-14,0.616,0.504,0.503,0.595,0.499,0.827,0.607,0.614,0.78,0.766,0.829,0.697,0.525
NCI-H1651,0.363,0.254,0.341,0.338,0.251,0.805,0.803,0.828,0.826,0.8,0.94,0.972,0.89
HCC-15,0.519,0.333,0.459,0.464,0.423,0.414,0.359,0.374,0.36,0.391,0.908,0.809,0.823
NCI-H1755,0.65,0.62,0.63,0.622,0.544,0.859,0.768,0.791,0.803,0.771,0.981,0.91,0.83
